Each molecule was assayed against T1, recombinant His-tag Y220C p53 DBD protein (Homo sapiens, UniProt P04637, Y220C) (assay: In vitro DNA binding activity assay (TR-FRET): binding of His-tag Y220C p53 DBD to biotin-labeled consensus DNA). Settings: SC150 = concentration to increase DNA binding by […], His-tag Y220C p53 DBD, biotin-labeled consensus DNA.
T1 construct: recombinant His-tag Y220C p53 DBD protein (amino acids #˜94-312)
Format: biochemical

Row | Structure (SMILES) | Y220C SC150 (μM)
1 | CN1CC[C@@H](Nc2cccc3c2cc(-c2noc(CNC(=O)c4ccc(C(C)(C)C)nc4)n2)n3CC(F)(F)F)[C@@H](F)C1 [Compound 501B, 6-tert-butyl-N-{[3-(4-{[(3S,4R)-3-fluoro-1-methylpiperidin-4-yl]amino}-1-(2,2,2-trifluoroethyl)-1H-indol-2-yl)-1,2,4-oxadiazol-5-yl]methyl}pyridine-3-carboxamide] | * (* = 0 μM ≤ SC150 < 0.1 μM)
2 | CN1CC[C@@H](Nc2cccc3c2cc(-c2noc(CNC(=O)c4cncn4-c4ccccc4)n2)n3CC(F)(F)F)[C@@H](F)C1 [Compound 309B, N-{[3-(4-{[(3S,4R)-3-fluoro-1-methylpiperidin-4-yl]amino)-1-(2,2,2-trifluoroethyl)-1H-indol-2-yl)-1,2,4-oxadiazol-5-yl]methyl}-1-phenyl-1H-imidazole-5-carboxamide] | * (* = 0 μM ≤ SC150 < 0.1 μM)
3 | CN1CCC(Nc2cccc3c2cc(-c2nnc(CNC(=O)[C@@H]4C[C@H]4C(=O)O)s2)n3CC(F)(F)F)CC1 (racemic) [Compound 76B, (+/−)-(1R,2R)-2-{[(5-{4-[(1-methylpiperidin-4-yl)amino]-1-(2,2,2-trifluoroethyl)-1H-indol-2-yl}-1,3,4-thiadiazol-2-yl)methyl]carbamoyl}cyclopropane-1-carboxylic acid] | * (* = 0 μM ≤ SC150 < 0.1 μM)
4 | CN1CC[C@@H](Nc2cccc3c2cc(-c2noc(CNC(=O)c4cnn(C5CCOCC5)c4)n2)n3CC(F)(F)F)[C@@H](F)C1 [Compound 325B, N-{[3-(4-{[(3S,4R)-3-fluoro-1-methylpiperidin-4-yl]amino}-1-(2,2,2-trifluoroethyl)-1H-indol-2-yl)-1,2,4-oxadiazol-5-yl]methyl}-1-(oxan-4-yl)-1H-pyrazole-4-carboxamide] | * (* = 0 μM ≤ SC150 < 0.1 μM)
5 | CN1CC[C@@H](Nc2cccc3c2cc(-c2noc(CNC(=O)c4ccn(C(C)(C)C)c4)n2)n3CC(F)(F)F)[C@@H](F)C1 [Compound 194B, 1-tert-butyl-N-{[3-(4-{[(3S,4R)-3-fluoro-1-methylpiperidin-4-yl]amino}-1-(2,2,2-trifluoroethyl)-1H-indol-2-yl)-1,2,4-oxadiazol-5-yl]methyl}-1H-pyrrole-3-carboxamide] | * (* = 0 μM ≤ SC150 < 0.1 μM)
6 | CN1CCC(Nc2cccc3c2cc(-c2nnc(CNC(=O)c4ccccn4)s2)n3CC(F)(F)F)CC1 [Compound 41B, N-[(5-{4-[(1-methylpiperidin-4-yl)amino]-1-(2,2,2-trifluoroethyl)-1H-indol-2-yl}-1,3,4-thiadiazol-2-yl)methyl]pyridine-2-carboxamide] | ** (** = 0.1 μM ≤ SC150 < 0.5 μM)
7 | CN1CC[C@@H](Nc2cccc3c2cc(-c2noc(CNC(=O)c4cnc(N5CCOCC5)s4)n2)n3CC(F)(F)F)[C@@H](F)C1 [Compound 453B, N-{[3-(4-{[(3S,4R)-3-fluoro-1-methylpiperidin-4-yl]amino}-1-(2,2,2-trifluoroethyl)-1H-indol-2-yl)-1,2,4-oxadiazol-5-yl]methyl}-2-(morpholin-4-yl)-1,3-thiazole-5-carboxamide] | * (* = 0 μM ≤ SC150 < 0.1 μM)
8 | CN1CC[C@@H](F)[C@@H](Nc2cccc3c2cc(-c2noc(CNC(=O)c4cnn(C(C)(C)C)c4)n2)n3CC(F)(F)F)C1 [Compound 409B, Tert-butyl-N-[[3-[4-[[(3S,4R)-4-fluoro-1-methyl-3-piperidyl]amino]-1-(2,2,2-trifluoroethyl)indol-2-yl]-1,2,4-oxadiazol-5-yl]methyl]pyrazole-4-carboxamide] | * (* = 0 μM ≤ SC150 < 0.1 μM)
9 | CO[C@H]1CCCC[C@@H]1n1ccc(C(=O)NCc2nc(-c3cc4c(N[C@@H]5CCN(C)C[C@@H]5F)cccc4n3CC(F)(F)F)no2)c1 (relative stereo) [Compound 384B] | * (* = 0 μM ≤ SC150 < 0.1 μM)
10 | COCC1(n2ccc(C(=O)NCc3nc(-c4cc5c(N[C@@H]6CCN(C)C[C@@H]6F)cccc5n4CC(F)(F)F)no3)c2)CCC1 [Compound 471B] | * (* = 0 μM ≤ SC150 < 0.1 μM)
11 | COCC1(n2ccc(C(=O)NCc3nc(-c4cc5c(N[C@H]6CCOC[C@H]6F)cccc5n4CC(F)(F)F)no3)c2)CC1 [Compound 496B, N-{[3-(4-{[(3S,4S)-3-fluorooxan-4-yl]amino}-1-(2,2,2-trifluoroethyl)-1H-indol-2-yl)-1,2,4-oxadiazol-5-yl]methyl}-1-[1-(methoxymethyl)cyclopropyl]-1H-pyrrole-3-carboxamide] | * (* = 0 μM ≤ SC150 < 0.1 μM)
12 | F[C@H]1CNCC[C@H]1Nc1cccc2c1cc(-c1noc(CNc3ccn[nH]3)n1)n2CC(F)(F)F [Compound 214B, N-[(3S,4R)-3-fluoropiperidin-4-yl]-2-(5-{[(1H-pyrazol-5-yl)amino]methyl}-1,2,4-oxadiazol-3-yl)-1-(2,2,2-trifluoroethyl)-1H-indol-4-amine] | * (* = 0 μM ≤ SC150 < 0.1 μM)
13 | COC(C)(C)c1cc(C(=O)NCc2nc(-c3cc4c(N[C@@H]5CCNC[C@@H]5F)cccc4n3CC(F)(F)F)no2)cs1 [Compound 489B, N-{[3-(4-{[(3S,4R)-3-fluoropiperidin-4-yl]amino}-1-(2,2,2-trifluoroethyl)-1H-indol-2-yl)-1,2,4-oxadiazol-5-yl]methyl}-5-(2-methoxypropan-2-yl)thiophene-3-carboxamide] | * (* = 0 μM ≤ SC150 < 0.1 μM)
14 | O=C(NCc1nc(-c2cc3c(NCC4CCC4)cccc3n2CC(F)(F)F)no1)C1CC1 [Compound 166B, N-[(3-{4-[(cyclobutylmethyl)amino]-1-(2,2,2-trifluoroethyl)-1H-indol-2-yl}-1,2,4-oxadiazol-5-yl)methyl]cyclopropanecarboxamide] | ** (** = 0.1 μM ≤ SC150 < 0.5 μM)
15 | CN1CCC(Nc2cccc3c2cc(-c2nnc(CNC(=O)c4ccn(C)c4)s2)n3CC(F)(F)F)CC1 [Compound 77B, 1-methyl-N-[(5-{4-[(1-methylpiperidin-4-yl)amino]-1-(2,2,2-trifluoroethyl)-1H-indol-2-yl}-1,3,4-thiadiazol-2-yl)methyl]-1H-pyrrole-3-carboxamide] | * (* = 0 μM ≤ SC150 < 0.1 μM)
16 | CC(C)c1nc(C(=O)NCc2nc(-c3cc4c(N[C@@H]5CCN(C)C[C@@H]5F)cccc4n3CC(F)(F)F)no2)cn1C [Compound 539B, N-{[3-(4-{[(3S,4R)-3-fluoro-1-methylpiperidin-4-yl]amino}-1-(2,2,2-trifluoroethyl)-1H-indol-2-yl)-1,2,4-oxadiazol-5-yl]methyl}-1-methyl-2-(propan-2-yl)-1H-imidazole-4-carboxamide] | * (* = 0 μM ≤ SC150 < 0.1 μM)
17 | CN1CC[C@@H](Nc2cccc3c2cc(-c2noc(CNC(=O)c4cc(C(C)(C)C)on4)n2)n3CC(F)(F)F)[C@@H](F)C1 [Compound 543B, 5-tert-butyl-N-{[3-(4-{[(3S,4R)-3-fluoro-1-methylpiperidin-4-yl]amino}-1-(2,2,2-trifluoroethyl)-1H-indol-2-yl)-1,2,4-oxadiazol-5-yl]methyl}-1,2-oxazole-3-carboxamide] | * (* = 0 μM ≤ SC150 < 0.1 μM)
18 | CN1CC[C@H](Nc2cccc3c2cc(-c2nnc(CNC(=O)c4ccccc4)s2)n3CC(F)(F)F)[C@H](F)C1 [Compound 26B, N-{[5-(4-{[(3R,4S)-3-fluoro-1-methylpiperidin-4-yl]amino}-1-(2,2,2-trifluoroethyl)-1H-indol-2-yl)-1,3,4-thiadiazol-2-yl]methyl}benzamide] | ** (** = 0.1 μM ≤ SC150 < 0.5 μM)

Reference: US11807644B2 (PMV Pharmaceuticals, Inc., priority 2020, dated 2023)
